Results from ChEMBL document CHEMBL4507282, “Data for DCP probe BI-1950” (2021).

What was measured:
[1] = system: Tyrosine-protein kinase ABL1 (Homo sapiens), P00519 [M351T]; details: Compound concentration 1000.0 nM
[2] = target: Tyrosine-protein kinase ABL1 (Homo sapiens) (UniProt P00519); details: Compound concentration 1000.0 nM
[3] = target: Activin receptor type-1B (Homo sapiens) (UniProt P36896); details: Compound concentration 1000.0 nM
[4] = system: ALK tyrosine kinase receptor (Homo sapiens), Q9UM73 [C1156Y]; details: Compound concentration 1000.0 nM
[5] = target: Protein-tyrosine kinase 6 (Homo sapiens) (UniProt Q13882); details: Compound concentration 1000.0 nM
[6] = target: Cyclin-dependent kinase 8 (Homo sapiens) (UniProt P49336); details: Compound concentration 1000.0 nM
[7] = target: Dual specificity protein kinase CLK4 (Homo sapiens) (UniProt Q9HAZ1); details: Compound concentration 1000.0 nM
Dual specificity protein kinase CLK4 (Homo sapiens), sequence (Q9HAZ1 whole entry, looked up): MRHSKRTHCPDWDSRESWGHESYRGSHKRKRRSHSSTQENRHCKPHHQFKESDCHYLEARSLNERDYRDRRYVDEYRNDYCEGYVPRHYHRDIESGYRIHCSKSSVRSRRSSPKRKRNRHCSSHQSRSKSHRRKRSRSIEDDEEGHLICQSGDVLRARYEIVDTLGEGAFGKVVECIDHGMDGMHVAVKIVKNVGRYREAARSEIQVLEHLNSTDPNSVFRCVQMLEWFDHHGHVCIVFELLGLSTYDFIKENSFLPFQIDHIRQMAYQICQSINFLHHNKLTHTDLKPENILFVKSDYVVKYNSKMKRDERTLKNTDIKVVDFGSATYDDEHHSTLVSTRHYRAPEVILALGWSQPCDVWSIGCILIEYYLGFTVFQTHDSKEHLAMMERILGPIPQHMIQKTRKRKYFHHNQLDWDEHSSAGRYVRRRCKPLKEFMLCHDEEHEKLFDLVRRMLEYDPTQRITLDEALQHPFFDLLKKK

[8] = target: Serine/threonine-protein kinase DCLK1 (Homo sapiens) (UniProt O15075); details: Compound concentration 1000.0 nM
[9] = target: Epithelial discoidin domain-containing receptor 1 (Homo sapiens) (UniProt Q08345); details: Compound concentration 1000.0 nM
Epithelial discoidin domain-containing receptor 1 (Homo sapiens), sequence (Q08345 whole entry, the tested form may be a part): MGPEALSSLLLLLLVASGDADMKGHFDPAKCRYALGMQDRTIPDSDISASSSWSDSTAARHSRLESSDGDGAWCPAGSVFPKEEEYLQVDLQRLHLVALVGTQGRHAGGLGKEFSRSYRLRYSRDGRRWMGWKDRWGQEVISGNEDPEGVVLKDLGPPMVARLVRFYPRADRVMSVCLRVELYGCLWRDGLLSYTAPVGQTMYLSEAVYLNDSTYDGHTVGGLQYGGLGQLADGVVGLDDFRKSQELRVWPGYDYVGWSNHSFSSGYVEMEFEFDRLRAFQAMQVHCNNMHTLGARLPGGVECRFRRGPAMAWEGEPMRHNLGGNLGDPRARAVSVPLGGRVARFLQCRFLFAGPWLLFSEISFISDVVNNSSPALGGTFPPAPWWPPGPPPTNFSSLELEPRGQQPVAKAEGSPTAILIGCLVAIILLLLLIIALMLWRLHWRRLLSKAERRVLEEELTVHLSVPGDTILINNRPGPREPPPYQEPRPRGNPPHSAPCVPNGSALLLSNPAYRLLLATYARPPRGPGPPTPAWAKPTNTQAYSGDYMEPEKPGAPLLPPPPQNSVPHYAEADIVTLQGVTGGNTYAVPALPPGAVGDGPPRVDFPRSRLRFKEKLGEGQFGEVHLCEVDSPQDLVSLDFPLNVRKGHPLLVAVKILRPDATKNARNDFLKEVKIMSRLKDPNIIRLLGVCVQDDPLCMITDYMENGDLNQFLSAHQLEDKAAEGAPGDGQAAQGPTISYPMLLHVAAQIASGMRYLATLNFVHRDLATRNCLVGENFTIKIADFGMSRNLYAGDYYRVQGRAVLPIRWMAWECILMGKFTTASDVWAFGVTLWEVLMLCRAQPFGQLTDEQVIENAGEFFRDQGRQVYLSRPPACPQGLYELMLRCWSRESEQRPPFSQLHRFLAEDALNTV

[10] = system: Epidermal growth factor receptor (Homo sapiens), P00533 [UNDEFINED MUTATION]; details: Compound concentration 1000.0 nM
[11] = target: Receptor tyrosine-protein kinase erbB-2 (Homo sapiens) (UniProt P04626); details: Compound concentration 1000.0 nM
[12] = target: Rhodopsin kinase GRK7 (Homo sapiens) (UniProt Q8WTQ7); details: Compound concentration 1000.0 nM
[13] = target: Insulin receptor (Homo sapiens) (UniProt P06213); details: Compound concentration 1000.0 nM
Insulin receptor (Homo sapiens), sequence (P06213 28-758 limits assumed): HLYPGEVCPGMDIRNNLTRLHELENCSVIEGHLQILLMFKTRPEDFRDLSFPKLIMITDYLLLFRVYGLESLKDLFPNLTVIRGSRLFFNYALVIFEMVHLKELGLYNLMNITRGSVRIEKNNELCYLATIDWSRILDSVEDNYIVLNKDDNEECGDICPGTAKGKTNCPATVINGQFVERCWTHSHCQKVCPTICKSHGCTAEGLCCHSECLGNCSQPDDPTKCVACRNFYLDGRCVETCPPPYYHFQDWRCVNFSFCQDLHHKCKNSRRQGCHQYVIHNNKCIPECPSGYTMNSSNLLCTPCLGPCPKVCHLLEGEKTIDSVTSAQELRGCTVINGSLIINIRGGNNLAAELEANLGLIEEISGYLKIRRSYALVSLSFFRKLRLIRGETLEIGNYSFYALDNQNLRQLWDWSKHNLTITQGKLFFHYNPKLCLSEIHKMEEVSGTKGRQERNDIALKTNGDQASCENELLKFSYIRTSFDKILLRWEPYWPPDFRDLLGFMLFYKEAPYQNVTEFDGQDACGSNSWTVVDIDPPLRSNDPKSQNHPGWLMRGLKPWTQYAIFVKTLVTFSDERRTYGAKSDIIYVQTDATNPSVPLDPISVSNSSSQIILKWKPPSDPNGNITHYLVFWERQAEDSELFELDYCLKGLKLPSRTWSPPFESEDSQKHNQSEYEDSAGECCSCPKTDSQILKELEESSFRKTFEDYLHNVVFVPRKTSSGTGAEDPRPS
Insulin receptor (Homo sapiens), sequence (P06213 763-1382 limits assumed): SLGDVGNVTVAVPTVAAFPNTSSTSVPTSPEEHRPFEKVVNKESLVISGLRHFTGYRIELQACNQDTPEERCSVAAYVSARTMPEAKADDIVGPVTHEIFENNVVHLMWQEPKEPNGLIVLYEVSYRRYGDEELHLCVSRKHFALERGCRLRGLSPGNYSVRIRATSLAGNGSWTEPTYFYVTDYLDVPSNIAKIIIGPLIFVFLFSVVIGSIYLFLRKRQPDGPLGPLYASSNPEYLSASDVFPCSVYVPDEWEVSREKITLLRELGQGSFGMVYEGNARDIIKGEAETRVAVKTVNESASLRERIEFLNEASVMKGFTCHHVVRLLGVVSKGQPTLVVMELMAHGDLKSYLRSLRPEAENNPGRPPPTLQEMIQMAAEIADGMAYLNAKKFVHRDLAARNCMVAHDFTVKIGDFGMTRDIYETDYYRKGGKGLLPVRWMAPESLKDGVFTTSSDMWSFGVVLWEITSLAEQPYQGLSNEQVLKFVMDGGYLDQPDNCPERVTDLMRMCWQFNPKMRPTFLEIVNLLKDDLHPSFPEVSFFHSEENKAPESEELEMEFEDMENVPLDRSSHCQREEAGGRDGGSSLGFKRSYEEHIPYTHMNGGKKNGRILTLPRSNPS

[14] = target: Interleukin-1 receptor-associated kinase 4 (Homo sapiens) (UniProt Q9NWZ3); details: Compound concentration 1000.0 nM
Interleukin-1 receptor-associated kinase 4 (Homo sapiens), sequence (Q9NWZ3 whole entry, the tested form may be a part): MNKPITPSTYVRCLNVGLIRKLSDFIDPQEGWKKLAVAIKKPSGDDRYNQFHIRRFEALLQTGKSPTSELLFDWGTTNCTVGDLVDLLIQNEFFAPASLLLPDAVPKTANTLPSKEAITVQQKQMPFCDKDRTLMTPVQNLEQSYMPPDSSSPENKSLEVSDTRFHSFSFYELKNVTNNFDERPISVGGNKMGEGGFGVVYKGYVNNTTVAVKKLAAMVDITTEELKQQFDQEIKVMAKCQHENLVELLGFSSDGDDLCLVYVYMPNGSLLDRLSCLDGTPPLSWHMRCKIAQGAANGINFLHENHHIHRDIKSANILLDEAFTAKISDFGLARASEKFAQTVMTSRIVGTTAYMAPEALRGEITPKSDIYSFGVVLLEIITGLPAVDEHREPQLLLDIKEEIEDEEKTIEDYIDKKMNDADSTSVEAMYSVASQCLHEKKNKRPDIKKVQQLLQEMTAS

[15] = target: LIM domain kinase 1 (Homo sapiens) (UniProt P53667); details: Compound concentration 1000.0 nM
LIM domain kinase 1 (Homo sapiens), sequence (P53667 whole entry, looked up, the tested form may be a part): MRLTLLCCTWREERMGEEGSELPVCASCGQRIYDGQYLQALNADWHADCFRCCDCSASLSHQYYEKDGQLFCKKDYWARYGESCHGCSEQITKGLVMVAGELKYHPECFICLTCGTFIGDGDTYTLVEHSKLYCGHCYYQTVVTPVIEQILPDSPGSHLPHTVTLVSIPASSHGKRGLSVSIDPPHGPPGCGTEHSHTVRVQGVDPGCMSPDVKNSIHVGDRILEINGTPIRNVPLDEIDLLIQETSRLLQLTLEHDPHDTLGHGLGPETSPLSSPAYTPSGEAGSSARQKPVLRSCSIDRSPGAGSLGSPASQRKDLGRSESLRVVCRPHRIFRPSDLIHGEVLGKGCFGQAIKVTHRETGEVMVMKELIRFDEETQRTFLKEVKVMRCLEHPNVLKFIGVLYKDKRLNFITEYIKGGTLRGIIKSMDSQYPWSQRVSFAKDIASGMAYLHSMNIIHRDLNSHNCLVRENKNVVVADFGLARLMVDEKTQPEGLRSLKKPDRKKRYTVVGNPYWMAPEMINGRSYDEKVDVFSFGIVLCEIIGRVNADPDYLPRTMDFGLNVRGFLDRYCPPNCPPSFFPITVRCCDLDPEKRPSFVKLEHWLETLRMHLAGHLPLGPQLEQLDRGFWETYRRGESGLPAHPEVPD

[16] = target: Mitogen-activated protein kinase kinase kinase 15 (Homo sapiens) (UniProt Q6ZN16); details: Compound concentration 1000.0 nM
[17] = target: MAP kinase-activated protein kinase 2 (Homo sapiens) (UniProt P49137); details: Compound concentration 1000.0 nM
[18] = target: MAP/microtubule affinity-regulating kinase 4 (Homo sapiens) (UniProt Q96L34); details: Compound concentration 1000.0 nM
[19] = target: Dual specificity mitogen-activated protein kinase kinase 7 (Homo sapiens) (UniProt O14733); details: Compound concentration 1000.0 nM
[20] = target: Serine/threonine-protein kinase 26 (Homo sapiens) (UniProt Q9P289); details: Compound concentration 1000.0 nM
Serine/threonine-protein kinase 26 (Homo sapiens), sequence (Q9P289 2-416 limits assumed): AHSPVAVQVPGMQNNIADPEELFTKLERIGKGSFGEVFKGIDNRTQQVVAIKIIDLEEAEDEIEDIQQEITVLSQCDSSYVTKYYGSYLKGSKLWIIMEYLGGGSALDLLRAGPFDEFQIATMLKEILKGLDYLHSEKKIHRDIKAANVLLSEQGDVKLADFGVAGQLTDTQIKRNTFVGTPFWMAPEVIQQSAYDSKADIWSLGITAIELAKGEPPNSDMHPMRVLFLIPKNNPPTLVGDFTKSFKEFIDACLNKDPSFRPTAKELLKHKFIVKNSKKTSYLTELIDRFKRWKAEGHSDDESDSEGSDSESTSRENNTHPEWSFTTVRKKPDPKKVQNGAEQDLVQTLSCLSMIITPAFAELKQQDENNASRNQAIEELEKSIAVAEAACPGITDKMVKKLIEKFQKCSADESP

[21] = target: Myosin light chain kinase family member 4 (Homo sapiens) (UniProt Q86YV6); details: Compound concentration 1000.0 nM
[22] = target: Mitogen-activated protein kinase 14 (Homo sapiens) (UniProt Q16539); details: Compound concentration 1000.0 nM
Mitogen-activated protein kinase 14 (Homo sapiens), sequence (Q16539 whole entry): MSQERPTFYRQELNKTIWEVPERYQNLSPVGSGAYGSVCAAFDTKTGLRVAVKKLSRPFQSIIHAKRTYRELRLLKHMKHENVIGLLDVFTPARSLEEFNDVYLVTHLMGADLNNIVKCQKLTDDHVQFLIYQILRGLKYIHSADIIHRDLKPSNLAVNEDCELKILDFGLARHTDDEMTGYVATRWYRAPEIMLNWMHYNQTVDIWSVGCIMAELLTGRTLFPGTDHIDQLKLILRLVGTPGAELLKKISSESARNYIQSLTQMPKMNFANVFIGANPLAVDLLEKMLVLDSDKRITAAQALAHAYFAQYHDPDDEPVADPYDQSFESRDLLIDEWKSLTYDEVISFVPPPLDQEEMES

[23] = target: Serine/threonine-protein kinase PAK 2 (Homo sapiens) (UniProt Q13177); details: Compound concentration 1000.0 nM
[24] = target: Cyclin-dependent kinase 17 (Homo sapiens) (UniProt Q00537); details: Compound concentration 1000.0 nM
[25] = target: Phosphorylase b kinase regulatory subunit alpha, liver isoform (Homo sapiens) (UniProt P46019); details: Compound concentration 1000.0 nM
[26] = target: Phosphatidylinositol 4-phosphate 5-kinase type-1 gamma (Homo sapiens) (UniProt O60331); details: Compound concentration 1000.0 nM
[27] = target: Phosphatidylinositol 5-phosphate 4-kinase type-2 beta (Homo sapiens) (UniProt P78356); details: Compound concentration 1000.0 nM
[28] = target: cAMP-dependent protein kinase catalytic subunit alpha (Homo sapiens) (UniProt P17612); details: Compound concentration 1000.0 nM
[29] = target: Serine/threonine-protein kinase N1 (Homo sapiens) (UniProt Q16512); details: Compound concentration 1000.0 nM
[30] = target: Rho-associated protein kinase 2 (Homo sapiens) (UniProt O75116); details: Compound concentration 1000.0 nM
[31] = target: Ribosomal protein S6 kinase alpha-5 (Homo sapiens) (UniProt O75582); details: Compound concentration 1000.0 nM
[32] = target: TGF-beta receptor type-1 (Homo sapiens) (UniProt P36897); details: Compound concentration 1000.0 nM
[33] = target: Activated CDC42 kinase 1 (Homo sapiens) (UniProt Q07912); details: Compound concentration 1000.0 nM
[34] = target: Testis-specific serine/threonine-protein kinase 1 (Homo sapiens) (UniProt Q9BXA7); details: Compound concentration 1000.0 nM
Testis-specific serine/threonine-protein kinase 1 (Homo sapiens), sequence (Q9BXA7 whole entry): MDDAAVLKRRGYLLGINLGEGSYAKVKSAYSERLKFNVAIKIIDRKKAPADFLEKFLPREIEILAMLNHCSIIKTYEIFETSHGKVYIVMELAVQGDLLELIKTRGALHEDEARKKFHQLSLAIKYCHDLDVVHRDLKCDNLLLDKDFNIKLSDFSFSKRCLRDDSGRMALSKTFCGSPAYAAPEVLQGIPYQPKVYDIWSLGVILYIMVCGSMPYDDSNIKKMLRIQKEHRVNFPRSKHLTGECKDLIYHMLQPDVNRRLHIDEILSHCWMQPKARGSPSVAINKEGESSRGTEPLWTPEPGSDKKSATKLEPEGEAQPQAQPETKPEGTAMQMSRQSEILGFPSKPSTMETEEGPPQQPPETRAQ

[35] = target: Phosphatidylinositol 3-kinase catalytic subunit type 3 (Homo sapiens) (UniProt Q8NEB9); details: Compound concentration 1000.0 nM
[36] = target: Serine/threonine-protein kinase 32A (Homo sapiens) (UniProt Q8WU08); details: Compound concentration 1000.0 nM
[37] = target: 5-hydroxytryptamine receptor 2B (Homo sapiens) (UniProt P41595); details: Compound concentration 10.0 uM
[38] = target: Delta-type opioid receptor (Homo sapiens) (UniProt P41143); details: Compound concentration 10.0 uM
[39] = target: Histamine H3 receptor (Homo sapiens) (UniProt Q9Y5N1); details: Compound concentration 10.0 uM

C[C@@]1(Cc2ccc(C#N)cc2)C(=O)N(c2cc(Cl)cc(Cl)c2)c2ncc(C(=O)NC3(c4nc(C5CCC5)no4)CC3)n21 [BI 9446]
inactive: residual activity [1] 100% | residual activity [2] 100% | residual activity [3] 100% | residual activity [4] 100% | residual activity [5] 100% | residual activity [6] 100% | residual activity [7] 97% | residual activity [8] 100% | residual activity [9] 81% | residual activity [10] 58% | residual activity [11] 100% | residual activity [12] 100% | residual activity [13] 89% | residual activity [14] 100% | residual activity [15] 90% | residual activity [16] 81% | residual activity [17] 100% | residual activity [18] 100% | residual activity [19] 100% | residual activity [20] 100% | residual activity [21] 100% | residual activity [22] 100% | residual activity [23] 64% | residual activity [24] 100% | residual activity [25] 100% | residual activity [26] 100% | residual activity [27] 97% | residual activity [28] 100% | residual activity [29] 100% | residual activity [30] 100% | residual activity [31] 100% | residual activity [32] 100% | residual activity [33] 86% | residual activity [34] 76% | residual activity [35] 100% | residual activity [36] 100% | inhibition [37] 15.5% | inhibition [38] 8.3% | inhibition [39] 20%

C[C@H](NC(=O)c1cnc2n1[C@](C)(Cc1ccc(C#N)cc1)C(=O)N2c1cc(Cl)c(F)c(Cl)c1)C(=O)NC1(c2ccccn2)CC1 [BI 1950]
inactive: residual activity [1] 100% | residual activity [2] 100% | residual activity [3] 99% | residual activity [4] 100% | residual activity [5] 92% | residual activity [6] 100% | residual activity [7] 88% | residual activity [8] 89% | residual activity [9] 100% | residual activity [10] 82% | residual activity [11] 100% | residual activity [12] 100% | residual activity [13] 100% | residual activity [14] 100% | residual activity [15] 100% | residual activity [16] 76% | residual activity [17] 100% | residual activity [18] 100% | residual activity [19] 100% | residual activity [20] 98% | residual activity [21] 100% | residual activity [22] 100% | residual activity [23] 92% | residual activity [24] 100% | residual activity [25] 100% | residual activity [26] 80% | residual activity [27] 100% | residual activity [28] 100% | residual activity [29] 100% | residual activity [30] 100% | residual activity [31] 100% | residual activity [32] 82% | residual activity [33] 94% | residual activity [34] 79% | residual activity [35] 100% | residual activity [36] 83% | inhibition [37] 17.2% | inhibition [38] -0.33% | inhibition [39] 1.43%
